Here are results for two compounds from paper PMC11869560, “Anticancer and cancer preventive activities of shogaol and curcumin from Zingiberaceae family plants in KG-1a leukemic stem cells” (BMC Complementary Medicine and Therapies, 2025).

SMILES strings stand for the structures. Values after ≈ are worked out from the molar mass of the structure shown. Read-outs that look alike come from different tables or passages of the source.

The test system of one test is RAW264.7 cells. In words: Cytotoxicity (IC20, cell viability) in RAW264.7 cells. The test is classed as cell-based. The conditions noted are these: Mus musculus, RAW264.7; incubation for 48 h; read-out: IC20 RAW264.7 (inhibitory concentration at 20% growth).
The subject of test [1] is p-c-Jun and p-SAPK/JNK in KG-1a cells. In words: p-c-Jun and p-SAPK/JNK in KG-1a cells by Western blotting. The class given is cell-based, human. The conditions noted are these: IC50 concentration, 6 h. As to the method: KG-1a cells (1.5 × 10^5 cells/mL) were treated with compounds or extracts at different incubation times. Then, the cells were harvested and the whole proteins were extracted using a RIPA buffer (25 mM Tris-base, pH 7.6, 0.1% SDS, 1% Triton X-100, 150 mM NaCl, and 1 mM EDTA). The protein concentration was measured using the Folin-Lowry or Bradford assay. The whole protein lysates (30 µg/lane) were then separated through 7.5% SDS-PAGE under reducing conditions and then transferred to PVDF membranes. The membranes were blocked in 5% skim milk in PBS, pH 7.4 at RT for 2 h, then, target proteins were probed with specific primary antibodies (anti-WT1, anti-CD34, anti-GAPDH, anti-cleaved caspase-3, anti-cleaved PARP, anti-phospho-Akt, anti-phospho-c-Jun, anti-phospho-SAPK/JNK, and anti-YAP/TAZ) indicated in Table S10 which diluted at a ratio of 1:1,000 in PBS, pH 7.4 at RT for 2 h. After incubation, the membranes were rinsed 6 times with 0.1% Tween-20 (Sigma-Aldrich, MA, USA) in PBS, pH 7.4 (PBS-T), each time for 5 min. […] Finally, the protein band signal was quantified by using a scan densitometer (Bio-Rad Laboratories, CA, USA). […]
A general note: Immunoblotting shows a protein as a band on a membrane.

For test [2], the system named is TAZ protein expression in KG-1a cells. In words: TAZ protein expression in KG-1a cells by Western blotting. The conditions noted are these: IC50 concentrations, 0–12 h. The test is classed as cell-based, human. As to the method:
KG-1a cells (1.5 × 10^5 cells/mL) were treated with compounds or extracts at different incubation times. Then, the cells were harvested and the whole proteins were extracted using a RIPA buffer (25 mM Tris-base, pH 7.6, 0.1% SDS, 1% Triton X-100, 150 mM NaCl, and 1 mM EDTA). The protein concentration was measured using the Folin-Lowry or Bradford assay. The whole protein lysates (30 µg/lane) were then separated through 7.5% SDS-PAGE under reducing conditions and then transferred to PVDF membranes. The membranes were blocked in 5% skim milk in PBS, pH 7.4 at RT for 2 h, then, target proteins were probed with specific primary antibodies (anti-WT1, anti-CD34, anti-GAPDH, anti-cleaved caspase-3, anti-cleaved PARP, anti-phospho-Akt, anti-phospho-c-Jun, anti-phospho-SAPK/JNK, and anti-YAP/TAZ) indicated in Table S10 which diluted at a ratio of 1:1,000 in PBS, pH 7.4 at RT for 2 h. After incubation, the membranes were rinsed 6 times with 0.1% Tween-20 (Sigma-Aldrich, MA, USA) in PBS, pH 7.4 (PBS-T), each time for 5 min. […] Finally, the protein band signal was quantified by using a scan densitometer (Bio-Rad Laboratories, CA, USA).

Test [3] relates to WT1 protein expression in KG-1a cells. In words: WT1 protein expression in KG-1a cells by Western blotting. The test is classed as cell-based, human. The method, then: KG-1a cells (1.5 × 10^5 cells/mL) were treated with compounds or extracts at different incubation times. Then, the cells were harvested and the whole proteins were extracted using a RIPA buffer (25 mM Tris-base, pH 7.6, 0.1% SDS, 1% Triton X-100, 150 mM NaCl, and 1 mM EDTA). The protein concentration was measured using the Folin-Lowry or Bradford assay. The whole protein lysates (30 µg/lane) were then separated through 7.5% SDS-PAGE under reducing conditions and then transferred to PVDF membranes. The membranes were blocked in 5% skim milk in PBS, pH 7.4 at RT for 2 h, then, target proteins were probed with specific primary antibodies (anti-WT1, anti-CD34, anti-GAPDH, anti-cleaved caspase-3, anti-cleaved PARP, anti-phospho-Akt, anti-phospho-c-Jun, anti-phospho-SAPK/JNK, and anti-YAP/TAZ) indicated in Table S10 which diluted at a ratio of 1:1,000 in PBS, pH 7.4 at RT for 2 h. After incubation, the membranes were rinsed 6 times with 0.1% Tween-20 (Sigma-Aldrich, MA, USA) in PBS, pH 7.4 (PBS-T), each time for 5 min. The reaction was followed by HRP-conjugated secondary antibody at 1:20,000 dilution in PBS, pH 7.4 at RT for 2 h, then, the membranes were rinsed 6 times for 5 min each with PBS-T. The proteins were shown using Immobilon Forte Western HRP substrate (Millipore, MA, USA). Finally, the protein band signal was quantified by using a scan densitometer (Bio-Rad Laboratories, CA, USA).

A further test concerns PBMCs. In words: MTT cytotoxicity assay in PBMCs. The class given is cell-based, human. The conditions noted are these: Homo sapiens, PBMC; for IC20: incubation for 48 h, read-out: IC20 PBMCs (inhibitory concentration at 20% growth). In general terms: Tetrazolium assays rely on reduction of a dye to a coloured formazan, in cell work by metabolically active cells.
Setting [4] is: IC20 concentrations, 48 h, normalized to GAPDH.
The mark [5] stands for this setting: Table S8, PBMCs, first replicate, read-out: IC50 value R1.
Where [6] appears, read: Table S8, PBMCs, second replicate, read-out: IC50 value R2.
The mark [7] stands for this setting: Table S8, PBMCs, third replicate, read-out: IC50 value R3.
[8] abbreviates: active compounds and drugs, MTT, 48 h, read-out: IC50 PBMCs.

By IC50 is commonly meant the concentration that inhibits the measured activity by half. Consider `CCCCC/C=C/C(=O)CCc1ccc(O)c(OC)c1` [Shogaol, shogaol], for which the IC20 in the test on RAW264.7 cells is 2.71 ± 0.62 µg/mL (≈ 9.81 µM); in the test on PBMCs, 6.06 ± 1.11 µg/mL (≈ 21.9 µM). Besides, the “p-c-Jun and p-SAPK/JNK levels compared to VC” value in test [1] is given as “increased”. In addition, the “effect on TAZ protein abundance” value in test [2] is given as “no significant change in its abundance was observed”. In addition, the “decrease of WT1 protein level compared to VC” value in test [3] (setting [4]) amounted to 30.71 ± 3.90%; in test [3] (IC50 concentration, 3 h) it was 22.58 ± 3.99%. Also, the 50% inhibitory concentration (IC50) in the test with PBMCs (setting [5]) was determined as 8.3 µg/mL (≈ 30 µM); in the test on PBMCs (setting [6]), 9.9 µg/mL (≈ 35.8 µM); in the test on PBMCs (setting [7]), 9.35 µg/mL (≈ 33.8 µM); in the test with PBMCs (setting [8]), 9.18 ± 0.82 µg/mL (≈ 33.2 µM).
`COc1cc(/C=C/C(=O)CC(=O)/C=C/c2ccc(O)c(OC)c2)ccc1O` [Curcumin, curcumin]: the IC20 with RAW264.7 cells came to 2.08 ± 0.15 µg/mL (≈ 5.65 µM); in the test with PBMCs, 3.72 ± 0.58 µg/mL (≈ 10.1 µM). Moreover, the “p-c-Jun and p-SAPK/JNK levels compared to VC” value in test [1] is on record as “increased”. Moreover, the “effect on TAZ protein abundance” value in test [2] is on record as “no significant change in its abundance was observed”. The “decrease of WT1 protein level compared to VC” value stood at 44.05 ± 9.81% in test [3] (setting [4]) and 77.01 ± 8.80% in test [3] (IC50 concentration, 6 h). Besides, the IC50 stood at 13.8 µg/mL (≈ 37.4 µM) in the test with PBMCs (setting [5]), 14.6 µg/mL (≈ 39.6 µM) in the test with PBMCs (setting [6]), 13 µg/mL (≈ 35.2 µM) with PBMCs (setting [7]) and 13.8 ± 0.82 µg/mL (≈ 37.4 µM) in the test on PBMCs (setting [8]).
